Data taken from PubChem BioAssay AID1963851 (Molecular Pharmacology Branch, DTP, NCI, 2024).

Tested on: 188146-221-R-J1-PDC complex spheroid viability
Assay: Anticancer human tumor 188146-221-R-J1-PDC patient-derived colon adenocarcinoma cell line growth inhibition [POLQ]
Details: for IC50: curve of first compound; for viability, T/C: stronger effect = lower value; active means viability on the fitted dose curve at most 10% of control; inactive means the rest
In short: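 Growth inhibition in 3D: complex spheroids (tumor PDC, HUVEC, MSC) treated with POLQ inhibitor combinations; where Cmax unknown, highest tested concentration 10 microM, except SN-38 at 1 microM.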

[1] = second compound 0.0316 µM, first compound 0.0316 µM
[2] = second compound 0.0316 µM, first compound 0.1 µM
[3] = second compound 0.0316 µM, first compound 0.316 µM
[4] = second compound 0.0316 µM, first compound 1 µM
[5] = second compound 0.0316 µM, first compound 3.16 µM
[6] = second compound 0.0316 µM, first compound 10 µM
[7] = second compound 0.1 µM, first compound 0.0316 µM
[8] = second compound 0.1 µM, first compound 0.1 µM
[9] = second compound 0.1 µM, first compound 0.316 µM
[10] = second compound 0.1 µM, first compound 1 µM
[11] = second compound 0.1 µM, first compound 3.16 µM
[12] = second compound 0.1 µM, first compound 10 µM
[13] = second compound 0.316 µM, first compound 0.0316 µM
[14] = second compound 0.316 µM, first compound 0.1 µM
[15] = second compound 0.316 µM, first compound 0.316 µM
[16] = second compound 0.316 µM, first compound 1 µM
[17] = second compound 0.316 µM, first compound 3.16 µM
[18] = second compound 0.316 µM, first compound 10 µM
[19] = second compound 1 µM, first compound 0.0316 µM
[20] = second compound 1 µM, first compound 0.1 µM
[21] = second compound 1 µM, first compound 0.316 µM
[22] = second compound 1 µM, first compound 1 µM
[23] = second compound 1 µM, first compound 3.16 µM
[24] = second compound 1 µM, first compound 10 µM
[25] = second compound 3.16 µM, first compound 0.0316 µM
[26] = second compound 3.16 µM, first compound 0.1 µM
[27] = second compound 3.16 µM, first compound 0.316 µM
[28] = second compound 3.16 µM, first compound 1 µM
[29] = second compound 3.16 µM, first compound 3.16 µM
[30] = second compound 3.16 µM, first compound 10 µM
[31] = second compound 10 µM, first compound 0.0316 µM
[32] = second compound 10 µM, first compound 0.1 µM
[33] = second compound 10 µM, first compound 0.316 µM
[34] = second compound 10 µM, first compound 1 µM
[35] = second compound 10 µM, first compound 3.16 µM
[36] = second compound 10 µM, first compound 10 µM
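Further: spheroids exposed to compounds for seven days.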
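Wherever viability, T/C is given: 100% = DMSO vehicle control viability.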

CCc1cc2c(N3CCc4c(cc(Cn5ccnc5)cc4-c4cn(C)nc4C(F)(F)F)C3=O)cc(C)nc2c(OC)n1 + COC1C(OC(N)=O)C(O)C(Oc2ccc3c(O)c(NC(=O)c4ccc(O)c(CC=C(C)C)c4)c(=O)oc3c2C)OC1(C)C
6.16 µM: IC50 (second compound 10 µM)
9.01 µM: IC50 (second compound 0.316 µM)
inactive: viability, T/C [1] 112% | viability, T/C [2] 102% | viability, T/C [3] 92.1% | viability, T/C [4] 88.1% | viability, T/C [5] 66.3% | viability, T/C [6] 42.8% | viability, T/C [7] 108% | viability, T/C [8] 101% | viability, T/C [9] 97.7% | viability, T/C [10] 85.4% | viability, T/C [11] 66.4% | viability, T/C [12] 55.9% | viability, T/C [13] 106% | viability, T/C [14] 108% | viability, T/C [15] 105% | viability, T/C [16] 83.3% | viability, T/C [17] 62.4% | viability, T/C [18] 48.2% | viability, T/C [19] 108% | viability, T/C [20] 108% | viability, T/C [21] 101% | viability, T/C [22] 83.2% | viability, T/C [23] 64.2% | viability, T/C [24] 53.2% | viability, T/C [25] 104% | viability, T/C [26] 114% | viability, T/C [27] 103% | viability, T/C [28] 89.2% | viability, T/C [29] 73.9% | viability, T/C [30] 51.1% | viability, T/C [31] 97.5% | viability, T/C [32] 98% | viability, T/C [33] 101% | viability, T/C [34] 78.5% | viability, T/C [35] 60.2% | viability, T/C [36] 43.2%
> 10 µM: IC50 (second compound 0.1 µM) | IC50 (second compound 1 µM) | IC50 (second compound 3.16 µM)
7.26 µM: IC50 (second compound 0.0316 µM)

CC[C@@]1(O)C(=O)OCc2c1cc1n(c2=O)Cc2cc3c(CN(C)C)c(O)ccc3nc2-1 + Cc1cccc(N(C)C(=O)C2C(O)CCN2c2nc(C)cc(C(F)(F)F)c2C#N)c1
> 0.1 µM: IC50 (second compound 0.0316 µM) | IC50 (second compound 0.1 µM) | IC50 (second compound 0.316 µM) | IC50 (second compound 1 µM) | IC50 (second compound 3.16 µM) | IC50 (second compound 10 µM)
inactive: viability, T/C (second compound 0.0316 µM, first compound 0.000316 µM) 110% | viability, T/C (second compound 0.0316 µM, first compound 0.001 µM) 95.1% | viability, T/C (second compound 0.0316 µM, first compound 0.00316 µM) 106% | viability, T/C (second compound 0.0316 µM, first compound 0.01 µM) 89.6% | viability, T/C [1] 98.1% | viability, T/C [2] 68.7% | viability, T/C (second compound 0.1 µM, first compound 0.000316 µM) 112% | viability, T/C (second compound 0.1 µM, first compound 0.001 µM) 99.6% | viability, T/C (second compound 0.1 µM, first compound 0.00316 µM) 96% | viability, T/C (second compound 0.1 µM, first compound 0.01 µM) 107% | viability, T/C [7] 99.1% | viability, T/C [8] 77.5% | viability, T/C (second compound 0.316 µM, first compound 0.000316 µM) 109% | viability, T/C (second compound 0.316 µM, first compound 0.001 µM) 91.2% | viability, T/C (second compound 0.316 µM, first compound 0.00316 µM) 92.4% | viability, T/C (second compound 0.316 µM, first compound 0.01 µM) 87% | viability, T/C [13] 96.5% | viability, T/C [14] 71.3% | viability, T/C (second compound 1 µM, first compound 0.000316 µM) 93.4% | viability, T/C (second compound 1 µM, first compound 0.001 µM) 99% | viability, T/C (second compound 1 µM, first compound 0.00316 µM) 101% | viability, T/C (second compound 1 µM, first compound 0.01 µM) 104% | viability, T/C [19] 97.9% | viability, T/C [20] 75.9% | viability, T/C (second compound 3.16 µM, first compound 0.000316 µM) 97.2% | viability, T/C (second compound 3.16 µM, first compound 0.001 µM) 100% | viability, T/C (second compound 3.16 µM, first compound 0.00316 µM) 94.6% | viability, T/C (second compound 3.16 µM, first compound 0.01 µM) 91.8% | viability, T/C [25] 92.2% | viability, T/C [26] 81% | viability, T/C (second compound 10 µM, first compound 0.000316 µM) 100% | viability, T/C (second compound 10 µM, first compound 0.001 µM) 99.6% | viability, T/C (second compound 10 µM, first compound 0.00316 µM) 92.4% | viability, T/C (second compound 10 µM, first compound 0.01 µM) 84.2% | viability, T/C [31] 78% | viability, T/C [32] 54.6%

CCc1cc2c(N3CCc4c(cc(Cn5ccnc5)cc4-c4cn(C)nc4C(F)(F)F)C3=O)ccnc2c(OC)n1 + Nc1ccc(C#CCN(C(=O)Cc2ncc(C(F)(F)F)cc2C(F)(F)F)c2ccc(F)cc2)nn1
9.81 µM: IC50 (second compound 0.1 µM)
inactive: viability, T/C [1] 105% | viability, T/C [2] 107% | viability, T/C [3] 90.8% | viability, T/C [4] 93.7% | viability, T/C [5] 73% | viability, T/C [6] 54.6% | viability, T/C [7] 110% | viability, T/C [8] 116% | viability, T/C [9] 87.9% | viability, T/C [10] 104% | viability, T/C [11] 82.3% | viability, T/C [12] 48.6% | viability, T/C [13] 119% | viability, T/C [14] 108% | viability, T/C [15] 101% | viability, T/C [16] 91.4% | viability, T/C [17] 75.6% | viability, T/C [18] 51.3% | viability, T/C [19] 113% | viability, T/C [20] 101% | viability, T/C [21] 85.8% | viability, T/C [22] 95.6% | viability, T/C [23] 72.4% | viability, T/C [24] 48.2% | viability, T/C [25] 106% | viability, T/C [26] 91% | viability, T/C [27] 94.1% | viability, T/C [28] 87.8% | viability, T/C [29] 87.1% | viability, T/C [30] 50% | viability, T/C [31] 110% | viability, T/C [32] 113% | viability, T/C [33] 107% | viability, T/C [34] 82.5% | viability, T/C [35] 71.2% | viability, T/C [36] 52.5%
9.79 µM: IC50 (second compound 1 µM)
> 10 µM: IC50 (second compound 0.0316 µM) | IC50 (second compound 0.316 µM) | IC50 (second compound 3.16 µM) | IC50 (second compound 10 µM)
